Laboratory results reported in PubChem BioAssay AID248 (DTP/NCI, 2004).
Several values for one entry are separate records, joined by “and”; a condition that tells them apart may be missing. Equal values may be shown once. Inconclusive results and toxic doses are left out. Rule as the data show it: active = T/C of 150% or more; inactive = T/C below 125%.

Test system: L1210 leukemia ip in BDF1 mice, survival T/C
Assay: NCI In Vivo Anticancer Drug Screen. Data for tumor model L1210 Leukemia (intraperitoneal) in B6D2F1 (BDF1) mice
Settings: endpoint: mean survival time, higher = longer survival
In short: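 Survival endpoint. Drug-treated group vs vehicle group, expressed as T divided by C. Tumor passaged by transplantation.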

[1] = dose: 100.0 mg/kg/injection, schedule: Q01DX001 (ip), vehicle: saline
[2] = dose: 200.0 mg/kg/injection, schedule: Q01DX001 (ip), vehicle: saline
[3] = dose: 400.0 mg/kg/injection, schedule: Q01DX001 (ip), vehicle: saline
[4] = dose: 100.0 mg/kg/injection, schedule: Q01DX009 (ip), vehicle: Klucel (hydroxypropylcellulose) (HPC)
[5] = dose: 400.0 mg/kg/injection, schedule: Q01DX009 (ip), vehicle: Klucel (hydroxypropylcellulose) (HPC)
[6] = dose: 100.0 mg/kg/injection, schedule: Q04DX003 (ip), vehicle: saline with Tween-80
[7] = dose: 200.0 mg/kg/injection, schedule: Q04DX003 (ip), vehicle: saline with Tween-80
[8] = dose: 400.0 mg/kg/injection, schedule: Q04DX003 (ip), vehicle: saline with Tween-80
[9] = dose: 100.0 mg/kg/injection, schedule: Q01DX001 (ip), vehicle: acetone
[10] = dose: 100.0 mg/kg/injection, schedule: Q01DX009 (ip), vehicle: saline
[11] = dose: 200.0 mg/kg/injection, schedule: Q01DX001 (ip), vehicle: acetone
[12] = dose: 200.0 mg/kg/injection, schedule: Q01DX009 (ip), vehicle: saline
[13] = dose: 400.0 mg/kg/injection, schedule: Q01DX001 (ip), vehicle: acetone
[14] = dose: 100.0 mg/kg/injection, schedule: Q04DX003 (ip), vehicle: saline
[15] = dose: 200.0 mg/kg/injection, schedule: Q04DX003 (ip), vehicle: saline
[16] = dose: 400.0 mg/kg/injection, schedule: Q04DX003 (ip), vehicle: saline

Measured: T/C

N#CCCN1CCC(=O)c2ccccc21
inactive: [1] 101 % of control | [2] 98 % of control | [3] 101 % of control

CC(=O)Nc1ccc(OC(=O)Nc2ccccc2Cl)cc1
inactive: [4] 101 % of control | dose: 100.0 mg/kg/injection, schedule: Q04DX003 (ip), vehicle: Klucel (hydroxypropylcellulose) (HPC) 96 % of control | dose: 200.0 mg/kg/injection, schedule: Q04DX003 (ip), vehicle: Klucel (hydroxypropylcellulose) (HPC) 95 % of control | [5] 101 % of control | dose: 400.0 mg/kg/injection, schedule: Q04DX003 (ip), vehicle: Klucel (hydroxypropylcellulose) (HPC) 95 % of control

CC(C(O)c1ccc(F)cc1)C(O)(C(F)(F)F)C(F)(F)F (centres undefined)
inactive: [6] 97 % of control | [7] 98 % of control | [8] 86 % of control

COc1ccc(COC2C(CO)OC(n3ccc(N)nc3=O)C2O)cc1 (centres undefined)
inactive: dose: 100.0 mg/kg/injection, schedule: Q01DX005 (ip), vehicle: saline 100 % of control | dose: 200.0 mg/kg/injection, schedule: Q01DX005 (ip), vehicle: saline 94 % of control

O=C(c1ccccc1)c1ccc(Cl)c([N+](=O)[O-])c1
inactive: dose: 50.0 mg/kg/injection, schedule: Q01DX001 (ip), vehicle: saline 103 % of control | [1] 100 % of control | [2] 91 % of control | [3] 97 % of control

O=S(=O)(C/C=C/CC(Cl)(Cl)Cl)C/C=C/CC(Cl)(Cl)Cl
inactive: [9] 95 % of control | [10] 90 % of control | dose: 100.0 mg/kg/injection, schedule: Q04DX003 (ip), vehicle: acetone 97 % of control | [11] 94 % of control | [12] 93 % of control | dose: 200.0 mg/kg/injection, schedule: Q04DX003 (ip), vehicle: acetone 95 % of control | [13] 89 % of control | dose: 400.0 mg/kg/injection, schedule: Q01DX009 (ip), vehicle: saline 92 % of control | dose: 400.0 mg/kg/injection, schedule: Q04DX003 (ip), vehicle: acetone 95 % of control

Cn1c(=O)oc2ccccc2c1=S
inactive: [14] 96 % of control | [15] 100 % of control | [16] 100 % of control

Cc1cccc(C(C)(C)C)c1O
inactive: [6] 102 % of control | [7] 91 % of control | [8] 94 % of control

CCCCCC#CCO
inactive: [6] 108 % of control | [7] 101 % of control

CNC(=S)N(C)C
inactive: dose: 100.0 mg/kg/injection, schedule: Q04DX003 (ip), vehicle: saline sonified 114 % of control | dose: 200.0 mg/kg/injection, schedule: Q04DX003 (ip), vehicle: saline sonified 103 % of control | dose: 400.0 mg/kg/injection, schedule: Q04DX003 (ip), vehicle: saline sonified 103 % of control

O=S(=O)(c1ccccc1)C(I)I
inactive: dose: 10.0 mg/kg/injection, schedule: Q04DX002 (ip), vehicle: Klucel (hydroxypropylcellulose) (HPC) 96 % of control | dose: 20.0 mg/kg/injection, schedule: Q04DX002 (ip), vehicle: Klucel (hydroxypropylcellulose) (HPC) 94 % of control | dose: 40.0 mg/kg/injection, schedule: Q04DX002 (ip), vehicle: Klucel (hydroxypropylcellulose) (HPC) 100 % of control

N#CCCNC(=O)c1ccccc1
inactive: [9] 107 % of control | dose: 100.0 mg/kg/injection, schedule: Q01DX009 (ip), vehicle: acetone 90 % of control | [14] 103 % of control | [11] 102 % of control | dose: 200.0 mg/kg/injection, schedule: Q01DX009 (ip), vehicle: acetone 92 % of control | [15] 94 % of control | [13] 102 % of control | dose: 400.0 mg/kg/injection, schedule: Q01DX009 (ip), vehicle: acetone 90 % of control | [16] 101 % of control

Cc1cc(Cl)ccc1NC(=O)Nc1c(Oc2ccc(Cl)cc2)ccc(Cl)c1S(=O)(=O)O
inactive: dose: 50.0 mg/kg/injection, schedule: Q01DX009 (ip), vehicle: saline 104 % of control | dose: 50.0 mg/kg/injection, schedule: Q04DX003 (ip), vehicle: saline 95 % of control | [10] 104 % of control | [14] 97 % of control | [12] 100 % of control | [15] 103 % of control

CC(O)CNC(=O)C(C)O (centres undefined)
inactive: [6] 98 % of control | [7] 97 % of control | [8] 102 % of control

COc1ccc(NC(=S)NN)cc1
inactive: dose: 25.0 mg/kg/injection, schedule: Q01DX009 (ip), vehicle: saline with Tween-80 103 % of control | dose: 50.0 mg/kg/injection, schedule: Q01DX009 (ip), vehicle: saline with Tween-80 89 % of control | dose: 100.0 mg/kg/injection, schedule: Q01DX009 (ip), vehicle: saline with Tween-80 95 % of control

O=C(O)c1cc([N+](=O)[O-])ccc1Oc1cccc(Cl)c1
inactive: dose: 75.0 mg/kg/injection, schedule: Q01DX001 (ip), vehicle: saline 96 % of control | dose: 150.0 mg/kg/injection, schedule: Q01DX001 (ip), vehicle: saline 95 % of control | dose: 300.0 mg/kg/injection, schedule: Q01DX001 (ip), vehicle: saline 96 % of control

CC1(C)N=C(N)N=C(N)N1CCc1ccccc1
inactive: dose: 25.0 mg/kg/injection, schedule: Q01DX001 (ip), vehicle: saline with Tween-80 101 % of control | dose: 50.0 mg/kg/injection, schedule: Q01DX001 (ip), vehicle: saline with Tween-80 104 % of control

COc1cc(CNC(=O)NCCCl)cc(OC)c1OC
inactive: dose: 100.0 mg/kg/injection, schedule: Q01DX001 (ip), vehicle: Klucel (hydroxypropylcellulose) (HPC) 96 % of control | [4] 94 % of control | dose: 200.0 mg/kg/injection, schedule: Q01DX001 (ip), vehicle: Klucel (hydroxypropylcellulose) (HPC) 88 % of control | dose: 200.0 mg/kg/injection, schedule: Q01DX009 (ip), vehicle: Klucel (hydroxypropylcellulose) (HPC) 95 % of control | dose: 400.0 mg/kg/injection, schedule: Q01DX001 (ip), vehicle: Klucel (hydroxypropylcellulose) (HPC) 98 % of control | [5] 90 % of control

O=C(Nc1cccc(Cl)c1)Oc1ccc(Cl)cc1Cc1ccccc1
inactive: dose: 100.0 mg/kg/injection, schedule: Q01DX009 (ip), vehicle: carboxymethylcellulose (CMC) 95 % of control and 91 % of control | dose: 100.0 mg/kg/injection, schedule: Q04DX002 (ip), vehicle: Klucel (hydroxypropylcellulose) (HPC) 121 % of control | dose: 100.0 mg/kg/injection, schedule: Q04DX002 (ip), vehicle: carboxymethylcellulose (CMC) 100 % of control | dose: 100.0 mg/kg/injection, schedule: Q04DX003 (ip), vehicle: carboxymethylcellulose (CMC) 94 % of control | dose: 200.0 mg/kg/injection, schedule: Q01DX009 (ip), vehicle: carboxymethylcellulose (CMC) 95 % of control and 97 % of control | dose: 200.0 mg/kg/injection, schedule: Q04DX002 (ip), vehicle: Klucel (hydroxypropylcellulose) (HPC) 102 % of control | dose: 200.0 mg/kg/injection, schedule: Q04DX002 (ip), vehicle: carboxymethylcellulose (CMC) 97 % of control and 107 % of control | dose: 200.0 mg/kg/injection, schedule: Q04DX003 (ip), vehicle: carboxymethylcellulose (CMC) 97 % of control | dose: 400.0 mg/kg/injection, schedule: Q01DX009 (ip), vehicle: carboxymethylcellulose (CMC) 93 % of control and 97 % of control | dose: 400.0 mg/kg/injection, schedule: Q04DX002 (ip), vehicle: Klucel (hydroxypropylcellulose) (HPC) 97 % of control | dose: 400.0 mg/kg/injection, schedule: Q04DX002 (ip), vehicle: carboxymethylcellulose (CMC) 98 % of control and 100 % of control | dose: 400.0 mg/kg/injection, schedule: Q04DX003 (ip), vehicle: carboxymethylcellulose (CMC) 94 % of control
